The target in this data set is hERG (Homo sapiens, UniProt Q12809). The data set is described as follows: Whole-cell patch-clamp of IKr hERG tail current: protective effect of lipids against hERG inhibition by Nilotinib. To be noted: for activity at 5 min: human, herg hek293 cells. (Patch clamp records ionic current or voltage across a cell membrane.)
Sequence of hERG (Q12809 whole entry): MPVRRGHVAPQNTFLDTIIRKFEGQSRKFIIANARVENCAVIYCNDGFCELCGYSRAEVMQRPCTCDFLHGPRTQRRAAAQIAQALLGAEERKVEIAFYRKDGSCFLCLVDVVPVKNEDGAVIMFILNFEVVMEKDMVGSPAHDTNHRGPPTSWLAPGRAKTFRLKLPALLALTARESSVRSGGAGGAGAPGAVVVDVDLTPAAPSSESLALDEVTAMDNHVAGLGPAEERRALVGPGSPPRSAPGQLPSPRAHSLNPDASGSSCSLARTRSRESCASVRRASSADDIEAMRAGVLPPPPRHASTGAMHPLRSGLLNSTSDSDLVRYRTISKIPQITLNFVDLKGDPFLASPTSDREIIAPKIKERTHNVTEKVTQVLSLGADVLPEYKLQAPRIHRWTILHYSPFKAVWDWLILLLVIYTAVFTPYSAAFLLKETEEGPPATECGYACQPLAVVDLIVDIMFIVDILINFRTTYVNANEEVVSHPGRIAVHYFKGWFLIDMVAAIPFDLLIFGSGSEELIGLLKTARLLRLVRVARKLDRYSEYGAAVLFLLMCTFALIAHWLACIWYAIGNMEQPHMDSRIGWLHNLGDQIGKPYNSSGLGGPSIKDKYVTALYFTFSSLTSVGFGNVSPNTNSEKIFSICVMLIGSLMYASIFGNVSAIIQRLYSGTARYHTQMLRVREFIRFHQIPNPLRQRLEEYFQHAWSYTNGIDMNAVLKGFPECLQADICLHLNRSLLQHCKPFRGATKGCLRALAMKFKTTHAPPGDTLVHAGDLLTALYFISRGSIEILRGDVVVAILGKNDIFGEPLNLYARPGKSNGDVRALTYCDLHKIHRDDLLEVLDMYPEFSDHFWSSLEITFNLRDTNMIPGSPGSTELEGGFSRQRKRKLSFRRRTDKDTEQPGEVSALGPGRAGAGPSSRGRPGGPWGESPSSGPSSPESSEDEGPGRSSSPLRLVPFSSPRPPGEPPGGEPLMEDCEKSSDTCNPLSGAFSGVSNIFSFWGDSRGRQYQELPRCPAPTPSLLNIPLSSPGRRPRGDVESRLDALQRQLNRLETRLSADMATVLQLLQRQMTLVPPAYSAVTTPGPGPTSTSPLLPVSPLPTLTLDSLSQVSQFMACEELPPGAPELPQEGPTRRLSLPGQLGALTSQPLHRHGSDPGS

Consider `CCCCCCCCCCCCCC(=O)OC[C@H](COP(=O)([O-])OCC[N+](C)(C)C)OC(=O)CCCCCCCCCCCCC` [DMPC, 1,2-dimyristoyl-sn-glycero-3-phosphocholine], for which the activity at 5 min is 106%. Moreover, the activity at 5 min (Normalized Current Density, lipid alone in aqueous solution, 5 minutes exposure, hERG-transfected HEK 293 cells, tail current at -55 mV, baseline = 1.000) is 86.3%.

As to “12-Mysteroyl-2-Hydroxy-sn-Glycero-3-[Phospho-rac-(glycerol)] [DMPG]”, the “Normalized Current Density” value (lipid alone in aqueous solution, 5 minutes exposure, hERG-transfected HEK 293 cells, tail current at -55 mV, baseline = 1.000) amounted to 0.800.

These data come from patent publication EP3697386B1, “LIQUID COMPOSITIONS FOR PERORAL USE COMPRISING PHOSPHATIDYLGLYCEROL DERIVATIVES AND T[…] TREATING CARDIAC CHANN[…] BY PHARMACOLOGICAL AGENTS” (Signpath Pharma, Inc., priority 2017, dated 2019).
